Data set [1] relates to ADPKD cells. As to the kind of experiment: Mitotic index of ADPKD cells. The data set is classed as cell-based, human. The conditions noted are these: untreated controls 4.1%. On the procedure: For the […] shown in FIG. 10C, 5×10^3 ADPKD cells were plated in a 4-well chamber slide. After 24 hours, medium was changed to include 5% FBS. Cells were treated with increasing concentrations of GMZ for 16 hours, fixed with 4% paraformaldehyde and permeabilized with 0.2% Triton-X100. Cells were mounted with DAPI-containing mounting medium and observed by fluorescence microscopy. Eight to ten separate fields were examined at 10× magnification and the number of mitotic figures (nuclei) were counted and expressed as a percentage of the total number of nuclei per field. Statistical analysis was done to compare the GMZ-treated cells to untreated cells at each time point using One-way ANOVA and the Tukey HSD test for pair-wise comparisons.

For another data set, the system named is NKCC1. The data set is described as follows: Immunostaining of organ culture kidney sections. The data set is classed as cell-based, mouse. As to conditions: 1-5 uM, cAMP-treated E15.5 organ culture kidneys, images not shown. On the procedure: To also test whether GMZ can target the Hsp90 client protein NKCC1, sections of E15.5 organ culture kidneys treated with cAMP or cAMP plus GMZ were immunostained with an antibody for NKCC1 (methods in Magenheimer, et al., 2006). […] Consistent with the known localization of NKCC1 in the kidney, the immunolabeling appeared to be decreased in the metanephric mesenchyme and collecting ducts when GMZ was used at 1-5 uM.

In another data set the test system is pcy mouse. As to the kind of experiment: In vivo treatment of the pcy mouse. As to conditions: 1 mg/kg IP, three times weekly from 5-20 weeks of age, after 12 weeks of treatment. From the text: The Pkd1 gene is orthologous to the gene involved in ˜85% of human ADPKD cases. […] Biol Reprod. 78(6):1139-52 (2008). If so, it could be reducing the levels of the Hsp90 client proteins, CFTR and NKCC1, both important for cyst-filling chloride secretion. Evidence is shown here that NKCC1 protein levels were reduced by GMZ treatment of metanephric kidneys in organ culture. Evidence was also shown for decreased PCNA levels, which is consistent with a general decrease in cell proliferation in these kidneys in organ culture, due probably to Hsp90 inhibition. The efficacy of GMZ on inhibition of cyst growth in vivo is currently being tested in the pcy mouse, a mouse model of nephronophthisis-3 (NPHP3) which has a slowly progressive renal cystic disease. […] Accordingly, gamendazole inhibits cell proliferation and cAMP-stimulated cyst-like expansion (in metanephric organ cultures). The mechanisms may involve: a direct and rapid inhibition of forskolin-stimulated CFTR channel activity; inhibition of Hsp90 chaperone function leading to long-term reduction of NKCC1 protein levels; or reduction of PKD proliferation pathway components. Thus, GMZ appears to be a potent inhibitor of these two important processes involved in PKD pathogenesis.

Data set [2] has as its system ADPKD cells. The data set is described as follows: Phalloidin staining of the actin cytoskeleton. The format is cell-based, human. The conditions noted are these: increasing concentrations. The method, then:
To determine if gamendazole treatment alters actin cytoskeleton dynamics, ADPKD cells were stained with phalloidin and examined by fluorescence microscopy. […] Briefly, ADPKD cells or M-1 cortical collecting duct cells were plated in a 4-well chamber slide in 5% FBS-containing medium. After 24 hours, the cells were treated with increasing concentrations of GMZ. Cells were fixed using 4% paraformaldehyde and permeabilized with 0.2% Triton-X 100. Cells were then incubated for 20 min with TRITC-conjugated phalloidin, washed with PBS and mounted with DAPI-containing mounting medium. Images were captured at 10× (FIG. 13A) or 60× (FIG. 13B), using the same exposure settings for treated and untreated cells. […] Blue (internal staining) indicates DAPI-stained nuclei.

Data set [3] concerns the target Hsp82 (the yeast homologue of Hsp90) (Saccharomyces cerevisiae, UniProt P02829). As to the kind of experiment: Cross-linking of biotinylated analogue to purified protein, competition with excess RC-MC-110. The format is binding. As to conditions: 10-fold excess of RC-MC-110, purified protein, UV cross-linking. The method, then: In this example, the binding of cross-linked biotinylated RC-MC-110 ([…]) to Hsp82 (the yeast homologue of Hsp90) was investigated by a cross-linking and biotinylated analogue of RC-MC-110.
The buffer solution in this examples was comprised of 50 mM Tris-HCl, pH 7.4, 50 mM NaCl, 5 mM EDTA, and 50 mM NaF.
First, the protein was diluted with the buffer solution above to give a final concentration of 0.278 mg/ml. The stock protein concentration was 22 mg/ml in 5 μl aliquots.
Next the drug was diluted as follows. Stock concentrations of RC-MC-210 (see structure below) were 0.6 mg/ml (cross-linked biotinylated analogue of RC-MC-110). A 300 μl aliquot was thawed, and separated into two 150 μl aliquots. Dilutions were in the order of 1, ½, ¼, ⅛, 1/16 of the stock solutions. The stock concentration of the competition solution was 0.6 mg/ml RC-MC-210 (549 μM), and about 0.9 mg of RC-MC-110 was dissolved in 150 μl of RC-MC-210 solution to give a final concentration of 6 mg/ml (14.5 mM).
The competition solution had the same concentration of RC-MC-210, but a 10-fold excess of RC-MC-110 (non-biotinylated) to its respective concentration (e.g: ½ RC-MC-210, then the RC-MC-110 was 10× that concentration.)
To prepare of the incubation reactions, 18 μl of protein from a 0.277 mg/ml diluted stock (about 5 μg of protein) was incubated with 2 μl of drug for 1 hr at 4° C. with gentle rocking. […]

A further data set deals with fruitfly. The data set is described as follows: Reproduction of fruitfly. The data set is classed as in vivo, Drosophila (fruitfly). From the text: Several known Hsp90 inhibitors are listed above. With regard to HSP90, RC-MC-110 likely a novel inhibitor of the N-terminal ATP binding site or a novel site on Hsp90. It should be noted that mutants of Hsp90 in Drosophila (fruitfly) produce sterile males and females. […] Genetics. 1999 March; 151(3):1065-79.

Chain of Hsp82 (the yeast homologue of Hsp90) (P02829 whole entry): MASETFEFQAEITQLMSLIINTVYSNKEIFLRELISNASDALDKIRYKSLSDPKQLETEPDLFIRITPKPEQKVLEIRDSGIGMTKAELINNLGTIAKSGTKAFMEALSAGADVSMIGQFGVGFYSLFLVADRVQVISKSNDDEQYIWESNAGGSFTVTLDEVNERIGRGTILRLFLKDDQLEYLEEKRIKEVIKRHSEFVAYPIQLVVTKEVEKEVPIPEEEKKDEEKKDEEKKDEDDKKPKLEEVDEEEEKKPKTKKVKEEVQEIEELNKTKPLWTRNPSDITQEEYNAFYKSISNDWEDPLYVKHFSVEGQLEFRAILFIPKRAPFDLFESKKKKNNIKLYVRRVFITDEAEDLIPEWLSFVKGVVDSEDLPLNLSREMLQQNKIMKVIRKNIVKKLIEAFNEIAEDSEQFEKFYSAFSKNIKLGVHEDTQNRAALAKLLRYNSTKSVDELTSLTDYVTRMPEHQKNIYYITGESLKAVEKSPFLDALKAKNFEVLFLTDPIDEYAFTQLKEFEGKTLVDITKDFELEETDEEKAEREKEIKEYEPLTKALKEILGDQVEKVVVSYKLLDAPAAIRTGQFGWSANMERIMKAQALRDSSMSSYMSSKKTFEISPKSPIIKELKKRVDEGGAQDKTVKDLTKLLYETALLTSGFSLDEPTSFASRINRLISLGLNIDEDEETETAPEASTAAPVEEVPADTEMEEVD

As for `O=C(O)CCc1nn(Cc2ccc(Cl)cc2Cl)c2cc(C(F)(F)F)ccc12` [GMZ, 3-[1-(2,4-dichlorobenzyl)-6-trifluoromethyl-1H-indazol-3-yl]-propionic acid], the mitotic index in the data set on ADPKD cells [1] (50 μM for 16 h) was determined as 2.6%; in the data set with ADPKD cells [1] (100 μM for 16 h, p<0.01) it was 1.7%. For the same compound, the NKCC1 staining result in the data set on NKCC1 is listed as “NKCC1 staining was reduced”. Further, the “Tolerability in the pcy mouse” value in the data set on pcy mouse is recorded as “the treated mice appear to be tolerating GMZ”. Further, the “Cell morphology, actin cytoskeleton” value with ADPKD cells [2] was “smaller, without leading edges and with less filamentous actin”.
Take `O=C(O)/C=C/c1nn(Cc2ccc(Cl)cc2Cl)c2cc(C(F)(F)F)ccc12` [RC-MC-110, trans 3-[1-(2,4-dichlorobenzyl)-6-trifluoromethyl-1H-indazol-3-yl]-acrylic acid]: the “Competition of the binding of the cross-linked biotinylated analogue to Hsp82” value in data set [3] is given as “the binding competes with excess RC-MC-110”. In addition, the “Potency on fruitfly reproduction, compared with lonidamine” value in the data set with fruitfly (in vivo) is given as “more potent than lonidamine”. Also, the Reproduction of fruitfly entry with fruitfly (provided to a fruitfly) was “inhibited reproduction”.

The record behind these values is patent US8362031B2, “Lonidamine analogues and treatment of polycystic kidney disease” (University of Kansas, priority 2004, dated 2013).
